Measured values reported in patent publication US9695155B2, “Herbicidal substituted pyrimidinyloxy benzene compounds” (E. I. DU PONT DE NEMOURS AND COMPANY, priority 2013, dated 2017).

Experiments:
barnyardgrass [1] = test: Test A preemergence; type: in vivo, Echinochloa crus-galli; settings: for Plant response rating, Barnyardgrass: 125 g ai/ha; for Barnyardgrass plant response rating: 500 g ai/ha
In short: (§1)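 Visual injury scored 0–100 (100 = complete control) against untreated controls about 10 days after treatment in a greenhouse. Test chemicals, formulated with surfactant in non-phytotoxic solvent, were sprayed on soil preemergence or on 2-10 cm, one- to two-leaf plants postemergence.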

barnyardgrass [2] = test: Test A postemergence; type: in vivo, Echinochloa crus-galli; settings: 0 to 100 scale where 0 is no effect and 100 is complete control
In short: as §1

corn = test: Test A postemergence; type: in vivo, Zea mays; settings: 0 to 100 scale where 0 is no effect and 100 is complete control
In short: as §1

rice = test: Test B flooded paddy test; type: in vivo, Oryza sativa; settings: Flood, 250 g ai/ha; 0 to 100 scale where 0 is no effect and 100 is complete control
In short: (§2)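 Scores from 0 (no effect) to 100 (complete control) are visual comparisons with controls, taken 13 to 15 days after compound was applied into floodwater 3 cm deep around 2-leaf plants.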

sedge, umbrella = test: Test B flooded paddy test; type: in vivo, Cyperus difformis; settings: Flood, 250 g ai/ha; 0 to 100 scale where 0 is no effect and 100 is complete control
In short: as §2

galium = test: Test C preemergence; type: in vivo, Galium aparine; settings: for Galium plant response rating: preemergence; for Plant response rating, Galium: Preemergence, 31 g ai/ha, scale 0 to 100, 0 no effect, 100 complete control
In short: (§3)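 Injury was assessed visually against controls 13 to 15 days after application, with 0 meaning no effect and 100 full control; missing entries are shown as a dash. Preemergence sprays hit seeded loam–sand soil, postemergence sprays hit 1- to 4-leaf plants.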

large (Lg) crabgrass [3] = test: Test C preemergence; type: in vivo, Digitaria sanguinalis; settings: for Crabgrass, Large plant response rating: preemergence; for Plant response rating, Crabgrass, Large: Preemergence, 31 g ai/ha, scale 0 to 100, 0 no effect, 100 complete control
In short: as §3

johnsongrass = test: Test C preemergence; type: in vivo, Sorghum halepense; settings: for Johnsongrass plant response rating: preemergence
In short: as §3

velvetleaf [4] = test: Test C preemergence; type: in vivo, Abutilon theophrasti; settings: for Velvetleaf plant response rating: preemergence
In short: as §3

large (Lg) crabgrass [5] = test: Test C postemergence; type: in vivo, Digitaria sanguinalis; settings: for Crabgrass, Large plant response rating / Plant response rating, Crabgrass, Large: scale 0 to 100 (0 no effect, 100 complete control)
In short: as §3

lambsquarters = test: Test C postemergence; type: in vivo, Chenopodium album
In short: as §3

soybean = test: Test C postemergence; type: in vivo, Glycine max
In short: as §3

oilseed rape = test: Test C postemergence; type: in vivo, Brassica napus
In short: as §3

waterhemp = test: Test C postemergence; type: in vivo, Amaranthus rudis
In short: as §3

velvetleaf [6] = test: Test C postemergence; type: in vivo, Abutilon theophrasti
In short: as §3

[7] = 0 to 100 scale where 0 is no effect and 100 is complete control
[8] = 16 g ai/ha, scale 0 to 100 (0 no effect, 100 complete control)
[9] = 62 g ai/ha, scale 0 (no effect) to 100 (complete control)
[10] = 125 g ai/ha, scale 0 (no effect) to 100 (complete control)
[11] = 16 g ai/ha, postemergence, 0 is no effect, 100 is complete control
[12] = 31 g ai/ha, postemergence, visual rating, scale 0 to 100 (0 no effect, 100 complete control), 13 to 15 days
[13] = 125 g ai/ha, postemergence, visual rating, scale 0 to 100 (0 no effect, 100 complete control)
[14] = Postemergence, 62 g ai/ha, scale 0 to 100 (0 no effect, 100 complete control)
[15] = Preemergence, 31 g ai/ha, scale 0 to 100, 0 no effect, 100 complete control
[16] = Postemergence, 31 g ai/ha, scale 0 to 100 (0 no effect, 100 complete control), 13 to 15 days

In the case of `FC(F)(F)c1cnn(-c2c(Cl)cccc2Oc2ncc(Cl)cn2)c1` [Compound 167], the “Plant response rating, Barnyardgrass” value (barnyardgrass [1]; [7]) is reported as 80, the “Barnyardgrass plant response rating” value (barnyardgrass [1]; [7]) is reported as 100 and the “Barnyardgrass plant response rating” value (barnyardgrass [2]; 125 g ai/ha) is reported as 70. The “Plant response rating, Barnyardgrass” value (barnyardgrass [2]; 500 g ai/ha) was 100, the “Corn plant response rating” value (corn; 125 g ai/ha) was 40 and the “Plant response rating, Corn” value (corn; 500 g ai/ha) was 50. The “Plant response rating, Rice” value (rice) was 0, the “Plant response rating, Sedge, Umbrella” value (sedge, umbrella) was 98 and the “Galium plant response rating” value (galium; [8]) was 98. For the same compound, the “Galium plant response rating” value (galium; [9]) was 100, the “Galium plant response rating” value (galium; [10]) was 100 and the “Plant response rating, Galium” value (galium) was 100. The “Crabgrass, Large plant response rating” value (large (Lg) crabgrass [3]; [8]) was 75, the “Crabgrass, Large plant response rating” value (large (Lg) crabgrass [3]; [9]) was 100 and the “Crabgrass, Large plant response rating” value (large (Lg) crabgrass [3]; [10]) was 100. For the same compound, the “Plant response rating, Crabgrass, Large” value (large (Lg) crabgrass [3]) was 98, the “Johnsongrass plant response rating” value (johnsongrass; [8]) was 5 and the “Johnsongrass plant response rating” value (johnsongrass; [9]) was 80. For the same compound, the “Johnsongrass plant response rating” value (johnsongrass; [10]) was 95, the “Velvetleaf plant response rating” value (velvetleaf [4]; [8]) was 45 and the “Velvetleaf plant response rating” value (velvetleaf [4]; [9]) was 100. The “Velvetleaf plant response rating” value (velvetleaf [4]; [10]) was 100, the “Plant response rating (0 to 100), Crabgrass, Large” value (large (Lg) crabgrass [5]; [11]) was 5 and the “Crabgrass, Large plant response rating” value (large (Lg) crabgrass [5]; 31 g ai/ha, postemergence, visual rating, 13 to 15 days) was 5. For the same compound, the “Plant response rating, Crabgrass, Large” value (large (Lg) crabgrass [5]; 125 g ai/ha, postemergence, visual rating) was 10, the “Plant response rating, Crabgrass, Large” value (large (Lg) crabgrass [5]; Postemergence, 62 g ai/ha) was 5 and the “Plant response rating (0 to 100), Lambsquarters” value (lambsquarters; [11]) was 80. The “Lambsquarters plant response rating” value (lambsquarters; [12]) was 90, the “Plant response rating, Lambsquarters” value (lambsquarters; [13]) was 100 and the “Plant response rating, Lambsquarters” value (lambsquarters; [14]) was 98. The “Plant response rating (0 to 100), Soybean” value (soybean; [11]) was 20, the “Soybean plant response rating” value (soybean; [12]) was 30 and the “Plant response rating, Soybean” value (soybean; [13]) was 60. The “Plant response rating, Soybean” value (soybean; [14]) was 60, the “Plant response rating (0 to 100), Oilseed Rape” value (oilseed rape; [11]) was 15 and the “Oilseed Rape plant response rating” value (oilseed rape; [12]) was 50. For the same compound, the “Plant response rating, Oilseed Rape” value (oilseed rape; [13]) was 70, the “Plant response rating, Oilseed Rape” value (oilseed rape; [14]) was 85 and the “Plant response rating (0 to 100), Waterhemp” value (waterhemp; [11]) was 65. For the same compound, the “Waterhemp plant response rating” value (waterhemp; [12]) was 75, the “Plant response rating, Waterhemp” value (waterhemp; [13]) was 98 and the “Plant response rating, Waterhemp” value (waterhemp; [14]) was 85. The “Plant response rating (0 to 100), Velvetleaf” value (velvetleaf [6]; [11]) was 35, the “Velvetleaf plant response rating” value (velvetleaf [6]; [12]) was 40 and the “Plant response rating, Velvetleaf” value (velvetleaf [6]; [13]) was 70. The “Plant response rating, Velvetleaf” value (velvetleaf [6]; [14]) was 40.

`CCOc1cnn(-c2c(C#N)cccc2Oc2ncc(Cl)cn2)c1` [Compound 92] was tested, and the “Plant response rating, Barnyardgrass” value (barnyardgrass [1]; [7]) was 60, the “Barnyardgrass plant response rating” value (barnyardgrass [1]; 0 to 100 scale, 0 no effect, 100 complete control, approx. 10 days) was 100 and the “Plant response rating, Barnyardgrass” value (barnyardgrass [2]; 125 g ai/ha) was 90. The “Plant response rating, Barnyardgrass” value (barnyardgrass [2]; 500 g ai/ha) was 100, the “Plant response rating, Corn” value (corn; 125 g ai/ha) was 50 and the “Plant response rating, Corn” value (corn; 500 g ai/ha) was 80. The “Plant response rating, Rice” value (rice) was 20, the “Plant response rating, Sedge, Umbrella” value (sedge, umbrella) was 90 and the “Galium plant response rating” value (galium; [8]) was 80. The “Galium plant response rating” value (galium; [9]) was 95, the “Galium plant response rating” value (galium; [10]) was 98 and the “Plant response rating, Galium” value (galium) was 85. For the same compound, the “Crabgrass, Large plant response rating” value (large (Lg) crabgrass [3]; [8]) was 90, the “Crabgrass, Large plant response rating” value (large (Lg) crabgrass [3]; [9]) was 100 and the “Crabgrass, Large plant response rating” value (large (Lg) crabgrass [3]; [10]) was 100. The “Plant response rating, Crabgrass, Large” value (large (Lg) crabgrass [3]) was 100, the “Johnsongrass plant response rating” value (johnsongrass; [8]) was 0 and the “Johnsongrass plant response rating” value (johnsongrass; [9]) was 70. The “Johnsongrass plant response rating” value (johnsongrass; [10]) was 85, the “Plant response rating, Johnsongrass” value (johnsongrass; [15]) was 5 and the “Velvetleaf plant response rating” value (velvetleaf [4]; [8]) was 30. The “Velvetleaf plant response rating” value (velvetleaf [4]; [9]) was 100, the “Velvetleaf plant response rating” value (velvetleaf [4]; [10]) was 100 and the “Plant response rating, Velvetleaf” value (velvetleaf [4]; [15]) was 90. For the same compound, the “Crabgrass, Large plant response rating” value (large (Lg) crabgrass [5]; 16 g ai/ha, postemergence, visual rating, 13 to 15 days) was 5, the “Plant response rating (0 to 100), Crabgrass, Large” value (large (Lg) crabgrass [5]; 125 g ai/ha, postemergence) was 10 and the “Plant response rating, Crabgrass, Large” value (large (Lg) crabgrass [5]; Postemergence, 31 g ai/ha, 13 to 15 days) was 5. For the same compound, the “Plant response rating, Crabgrass, Large” value (large (Lg) crabgrass [5]; Postemergence, 62 g ai/ha) was 5, the “Plant response rating (0 to 100), Lambsquarters” value (lambsquarters; 125 g ai/ha, postemergence) was 75 and the “Plant response rating, Lambsquarters” value (lambsquarters; [16]) was 35. For the same compound, the “Plant response rating, Lambsquarters” value (lambsquarters; [14]) was 40, the “Plant response rating (0 to 100), Soybean” value (soybean; 125 g ai/ha, postemergence) was 95 and the “Plant response rating, Soybean” value (soybean; [16]) was 70. For the same compound, the “Plant response rating, Soybean” value (soybean; [14]) was 90, the “Plant response rating (0 to 100), Oilseed Rape” value (oilseed rape; 125 g ai/ha, postemergence) was 70 and the “Plant response rating, Oilseed Rape” value (oilseed rape; [16]) was 45. The “Plant response rating, Oilseed Rape” value (oilseed rape; [14]) was 60, the “Plant response rating (0 to 100), Waterhemp” value (waterhemp; 125 g ai/ha, postemergence) was 80 and the “Plant response rating, Waterhemp” value (waterhemp; [16]) was 45. For the same compound, the “Plant response rating, Waterhemp” value (waterhemp; [14]) was 75, the “Plant response rating (0 to 100), Velvetleaf” value (velvetleaf [6]; 125 g ai/ha, postemergence) was 60 and the “Plant response rating, Velvetleaf” value (velvetleaf [6]; [16]) was 45. The “Plant response rating, Velvetleaf” value (velvetleaf [6]; [14]) was 50.
